Results taken from US12428422B2, “Purine derivatives as SIK-3 inhibitors” (RHIZEN PHARMACEUTICALS AG, priority 2020, dated 2025).

What was measured:
[1] = test system: MV-4-11 cell lines; assay: MTT cell growth inhibition, single agent or combination, MV-4-11; assay type: cell-based; settings: combined with azacytidine or ventoclax, 72 hrs
Description: Assay 4: Compound M1 as a Single Agent or in Combination with Azacytidine, or Venetoclax was Determined in the AML Lines: THP-1, U937, and MV-4-11.
Day 0 • The cells were pelleted and counted. • Cells were plated at desired density (100 μl/well) in complete media in a 96-well plate in triplicates. A column for Day “0” reading was also seeded (18-20 hrs after initial plating and before addition of the inhibitors) • Plates were incubated at 37° C. and 5% CO2. Day 1 • 10 μl of MTT (5 mg/ml) were added to the column designated for Day “0”. It was mixed well and incubated at 37° C. and 5% CO2 for 3.5 h. Cells were pelleted down at 4000 rpm for 10 minutes. • Media was aspirated out and 150 μl of DMSO were added to the cells and mixed by pipetting to dissolve the crystals • Plate was read at A560 nm and A640 nm. […] Crystals were dissolved by repeated pipetting. • The plate was read at A560 nm and A640 nm. […]
Reference absorbance values were subtracted from test absorbance values. Day 0 values were subtracted from final day absorbance values for determining cell growth. Percent cell growth inhibitions were calculated.

[2] = target: y isoform of PI3K (Homo sapiens, UniProt P48736); assay: Activity against PI3K gamma isoform (printed "y" / "7"); settings: independently synthesized compound
Sequence of y isoform of PI3K (P48736 whole entry, canonical isoform): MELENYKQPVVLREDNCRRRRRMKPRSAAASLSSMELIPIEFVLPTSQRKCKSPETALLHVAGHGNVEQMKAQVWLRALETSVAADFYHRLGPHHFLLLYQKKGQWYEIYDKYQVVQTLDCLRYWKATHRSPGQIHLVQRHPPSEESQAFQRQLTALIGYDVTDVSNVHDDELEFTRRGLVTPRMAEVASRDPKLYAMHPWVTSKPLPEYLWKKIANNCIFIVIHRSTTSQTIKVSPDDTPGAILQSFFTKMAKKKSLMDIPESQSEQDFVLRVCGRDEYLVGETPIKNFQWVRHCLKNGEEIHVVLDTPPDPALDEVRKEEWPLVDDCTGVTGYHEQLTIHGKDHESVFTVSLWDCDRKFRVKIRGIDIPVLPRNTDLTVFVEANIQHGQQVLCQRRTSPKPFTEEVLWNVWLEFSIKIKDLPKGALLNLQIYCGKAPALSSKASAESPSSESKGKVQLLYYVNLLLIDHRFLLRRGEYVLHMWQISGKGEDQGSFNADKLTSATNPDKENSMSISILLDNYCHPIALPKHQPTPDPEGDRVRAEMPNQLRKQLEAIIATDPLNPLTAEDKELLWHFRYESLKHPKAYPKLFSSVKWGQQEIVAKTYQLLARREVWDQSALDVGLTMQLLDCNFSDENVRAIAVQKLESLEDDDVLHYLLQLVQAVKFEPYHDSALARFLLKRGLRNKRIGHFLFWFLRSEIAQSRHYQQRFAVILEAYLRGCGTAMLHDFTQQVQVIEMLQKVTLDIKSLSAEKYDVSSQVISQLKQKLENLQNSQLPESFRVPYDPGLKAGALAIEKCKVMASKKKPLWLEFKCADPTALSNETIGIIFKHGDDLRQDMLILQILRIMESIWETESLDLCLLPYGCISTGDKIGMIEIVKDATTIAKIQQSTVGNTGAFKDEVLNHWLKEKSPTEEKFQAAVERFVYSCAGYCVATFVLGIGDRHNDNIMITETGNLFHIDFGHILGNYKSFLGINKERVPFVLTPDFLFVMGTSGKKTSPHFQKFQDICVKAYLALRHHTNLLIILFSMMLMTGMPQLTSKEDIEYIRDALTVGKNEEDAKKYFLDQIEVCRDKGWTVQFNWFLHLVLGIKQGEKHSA

- activity against the y isoform of PI3K [2]: inactive
Compound: CC[C@H](Nc1ncnc2[nH]c(O)nc12)c1oc2ccccc2c(=O)c1-c1cccc(F)c1 [Compound M1, (S)-3-(3-fluorophenyl)-2-(1-((8-hydroxy-9H-purin-6-yl)amino)propyl)-4H-chromen-4-one]
- cell growth inhibition in combination [1]: synergistic activity
